US7576127B2, “Aromatic prodrugs of propofol, compositions and uses thereof” (XenoPort, Inc., priority 2003, dated 2009)

Columns and labels:
human SMVT (SLC5A6) = biological target: T1, human SMVT (SLC5A6) (Homo sapiens, UniProt Q9Y289); test: Electrogenic transport in SMVT-expressing Xenopus oocytes (two-electrode voltage-clamp); assay type: cell-based; settings: tested at 0.5 mM on oocytes expressing SMVT; membrane potential -60 mV
T1 construct: The complete open reading frame of human SMVT (SLC5A6) was amplified; expressed in transfected cells; host or cells: Xenopus oocytes injected with cRNA transcribed in vitro from the pMO plasmid
T1 sequence (Q9Y289 1-635): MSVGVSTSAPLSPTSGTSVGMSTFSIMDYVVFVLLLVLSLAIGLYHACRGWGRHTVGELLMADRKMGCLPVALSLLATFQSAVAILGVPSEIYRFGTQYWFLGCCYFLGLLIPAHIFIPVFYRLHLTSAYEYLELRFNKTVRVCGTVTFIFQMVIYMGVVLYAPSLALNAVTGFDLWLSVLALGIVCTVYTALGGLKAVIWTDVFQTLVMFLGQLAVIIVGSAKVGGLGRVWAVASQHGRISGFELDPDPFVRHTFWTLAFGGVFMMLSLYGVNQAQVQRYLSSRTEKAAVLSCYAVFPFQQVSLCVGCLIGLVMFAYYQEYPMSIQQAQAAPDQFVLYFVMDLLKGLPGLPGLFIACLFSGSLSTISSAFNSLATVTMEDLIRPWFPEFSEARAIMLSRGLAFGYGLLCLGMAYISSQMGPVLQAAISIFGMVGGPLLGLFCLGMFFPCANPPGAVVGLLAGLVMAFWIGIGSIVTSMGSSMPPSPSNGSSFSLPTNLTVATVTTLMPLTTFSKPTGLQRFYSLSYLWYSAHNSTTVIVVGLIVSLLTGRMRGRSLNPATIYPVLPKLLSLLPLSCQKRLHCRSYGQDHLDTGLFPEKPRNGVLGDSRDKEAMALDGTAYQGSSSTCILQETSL
Source text: Transporter Cloning: The complete open reading frame of human SMVT (SLC5A6) was amplified from human cDNA prepared from intestinal mRNA. Gene-specific oligonucleotide primers were designed against Genbank sequences (NM-021095). Amplified PCR products were cloned into a modified version of the mammalian expression vector pcDNA3 (termed pMO) that was engineered to contain the 5′ and 3′ untranslated regions from the Xenopus beta-globin gene. All clones were completely sequenced and tested for function by transient transfection in HEK293 cells. Radiolabeled ^3H biotin was used to assess SMVT function (see method below).
Xenopus Oocyte Expression and Electrophysiology: cRNA for oocyte expression was prepared by linearization of plasmid cDNA and in vitro transcription using T7 polymerase (Epicentre Ampliscribe kit). Xenopus oocytes were prepared and maintained as previously described (Collins et al., Proc. Natl. Acad. Sci. 1997, 13:5456-5460) and injected with 10-30 ng RNA. Transport currents were measured 2-6 days later using two-electrode voltage-clamp (Axon Instruments). […] Half-maximal concentrations were calculated using non-linear regression curve fitting software (Prism) with the Hill co-efficient fixed to 1. […]

[1] = oral dosing, rats; Raoof et al., Pharm. Res. 1996; cited from earlier work

Structure (SMILES)	SMVT-specific currents above background, normalized to maximal biotin elicited current (human SMVT (SLC5A6))	fraction of administered drug undergoing first pass metabolism [1]
CC(C)c1cccc(C(C)C)c1OC(=O)c1ccccc1C(=O)NCCC(=O)O [Compound 101, 3-{[2-[2,6-Bis(isopropyl)phenoxycarbonyl]-benzoyl]amino}-propanoic acid]	at least 10 % of Imax for biotin	–
CC(C)c1cccc(C(C)C)c1O [Propofol, 2,6-diisopropylphenol]	–	approximately 90%
